Results from US20090137652A1, “METHODS FOR NEUROPROTECTION” (priority 2005, published 2009).

Tested on: rats subjected to li-pilo SE
Experiment: Quantification of cell densities 14 days after lithium-pilocarpine SE (Example 2)
Format: in vivo, rat
Settings: 14 days after SE
Procedure: All rats received lithium chloride (3 meq/kg, i.p., Sigma, St Louis, Mo., U.S.A.) and about 20 h later, all animals received also methylscopolamine bromide (1 mg/kg, s.c., Sigma) that was administered to limit the peripheral effects of the convulsant. SE was induced by injecting pilocarpine hydrochloride (25 mg/kg, s.c., Sigma) 30 min after methylscopolamine. The effects of increasing doses of TC (RWJ) were studied in 5 groups of rats. […] The control group received vehicle instead of pilocarpine and TC.
At the moment, neuronal counting is still in progress in the second group of animals studied for epileptogenesis and long-term counting and the data concerning that part of the study will not be included in the present report. For neuronal counting, animals were deeply anesthetized with […] pentobarbital (Dolethal®, Vetoquinol, Lure, France). Brains were then removed and frozen. Serial 20 μm slices were cut in a cryostat, air-dried during several days before thionine staining. […] The grid of counting was placed on a well defined area of the cerebral structure of interest and counting was carried out with a microscopic enlargement of 200- or 400-fold defined for each single cerebral structure. Cell counts were performed twice on each side of three adjacent sections for each region by a single observer unaware of the animal's treatment. The number of cells obtained in the 12 counted fields in each cerebral structure was averaged. This procedure was used to minimize the potential errors that could result from double counting leading to overestimation of cell numbers. […] Counts involved only neurons with cell bodies larger than 10 μm. Cells with small cell bodies were considered as glial cells and were not counted.
For neuronal damage and epileptogenesis, statistical analysis between groups was performed by means of a one-way analysis of variance followed by a post-hoc Dunnett or Fisher test using the Statistica software.

NC(=O)OC[C@@H](O)c1ccccc1Cl [Formula 7]
neuronal drop out, layer II of the dorsal piriform cortex (TC 60 mg/kg, significant vs DZP): 25%
damage remaining, ventral entorhinal cortex layer II (TC 90 mg/kg): 4%
damage remaining, ventral entorhinal cortex layers III/IV (TC 90 mg/kg): 17%
neuronal density as % of control levels, piriform cortex (TC 120 mg/kg): 78-96%
neurons surviving, all parts of the entorhinal cortex (TC 120 mg/kg): 85-94%
cell loss, CA1 pyramidal cell layer (TC30, 60 or 90 rats, significant vs DZP): 36-47%
neuronal loss, hilus of the dentate gyrus (TC120 group, not significant vs DZP): 53%
cell loss, CA1 pyramidal cell layer (TC120 group, significant vs DZP): 12%
neuronal drop out, thalamic nuclei (TC120 rats): 4-19%
number of neurons as % of the control level, all amygdala nuclei (TC highest dose (120 mg/kg)): 86-99%
number of neuronal cell bodies, Amygdala, Basolateral (pilo-TC30 (30 mg/kg), n = 8): 27.3 ± 4.9**°
number of neuronal cell bodies, Amygdala, Medial, dorsal anterior (pilo-TC30 (30 mg/kg), n = 8): 46.8 ± 5.0
number of neuronal cell bodies, Amygdala, Medial, ventral posterior (pilo-TC30 (30 mg/kg), n = 8): 22.3 ± 1.8
number of neuronal cell bodies, Cerebral cortex, Entorhinal, layer II, dorsal (pilo-TC30 (30 mg/kg), n = 8): 23.4 ± 0.6
number of neuronal cell bodies, Cerebral cortex, Entorhinal, layer II, ventral (pilo-TC30 (30 mg/kg), n = 8): 22.7 ± 0.9
number of neuronal cell bodies, Cerebral cortex, Entorhinal, layer III/IV, dorsal (pilo-TC30 (30 mg/kg), n = 8): 22.3 ± 0.5
number of neuronal cell bodies, Cerebral cortex, Entorhinal, layer III/IV, ventral (pilo-TC30 (30 mg/kg), n = 8): 13.2 ± 1.9
number of neuronal cell bodies, Cerebral cortex, Piriform, layer II, dorsal (pilo-TC30 (30 mg/kg), n = 8): 15.7 ± 2.9
number of neuronal cell bodies, Cerebral cortex, Piriform, layer II, ventral (pilo-TC30 (30 mg/kg), n = 8): 7.2 ± 3.8
number of neuronal cell bodies, Cerebral cortex, Piriform, layer III (pilo-TC30 (30 mg/kg), n = 8): 1.8 ± 1.8
number of neuronal cell bodies, Hippocampus, CA1 area (pilo-TC30 (30 mg/kg), n = 8): 39.3 ± 4.4**°°
number of neuronal cell bodies, Hippocampus, CA3 area (pilo-TC30 (30 mg/kg), n = 8): 35.7 ± 1.8
number of neuronal cell bodies, Hippocampus, Hilus (pilo-TC30 (30 mg/kg), n = 8): 33.0 ± 3.2
number of neuronal cell bodies, Thalamus, Central medial (pilo-TC30 (30 mg/kg), n = 8): 75.6 ± 7.7
number of neuronal cell bodies, Thalamus, Dorsolateral, medial, dorsal (pilo-TC30 (30 mg/kg), n = 8): 64.2 ± 9.3**°°
number of neuronal cell bodies, Thalamus, Dorsolateral, ventral lateral (pilo-TC30 (30 mg/kg), n = 8): 8.8 ± 2.8
number of neuronal cell bodies, Thalamus, Mediodorsal central (pilo-TC30 (30 mg/kg), n = 8): 26.9 ± 0.6
number of neuronal cell bodies, Thalamus, Mediodorsal lateral (pilo-TC30 (30 mg/kg), n = 8): 20.5 ± 0.7
number of neuronal cell bodies, Thalamus, Mediodorsal medial (pilo-TC30 (30 mg/kg), n = 8): 11.5 ± 2.5
number of neuronal cell bodies, Amygdala, Basolateral (pilo-TC60 (60 mg/kg), n = 11): 27.8 ± 4.3**°°
number of neuronal cell bodies, Amygdala, Medial, dorsal anterior (pilo-TC60 (60 mg/kg), n = 11): 58.4 ± 2.8**°
number of neuronal cell bodies, Amygdala, Medial, ventral posterior (pilo-TC60 (60 mg/kg), n = 11): 26.2 ± 2.9
number of neuronal cell bodies, Cerebral cortex, Entorhinal, layer II, dorsal (pilo-TC60 (60 mg/kg), n = 11): 23.9 ± 0.5
number of neuronal cell bodies, Cerebral cortex, Entorhinal, layer II, ventral (pilo-TC60 (60 mg/kg), n = 11): 23.3 ± 0.8
number of neuronal cell bodies, Cerebral cortex, Entorhinal, layer III/IV, dorsal (pilo-TC60 (60 mg/kg), n = 11): 23.2 ± 0.8
number of neuronal cell bodies, Cerebral cortex, Entorhinal, layer III/IV, ventral (pilo-TC60 (60 mg/kg), n = 11): 16.5 ± 2.2
number of neuronal cell bodies, Cerebral cortex, Piriform, layer II, dorsal (pilo-TC60 (60 mg/kg), n = 11): 27.5 ± 2.8**°°
number of neuronal cell bodies, Cerebral cortex, Piriform, layer II, ventral (pilo-TC60 (60 mg/kg), n = 11): 13.7 ± 4.2
number of neuronal cell bodies, Cerebral cortex, Piriform, layer III (pilo-TC60 (60 mg/kg), n = 11): 6.4 ± 2.3
number of neuronal cell bodies, Hippocampus, CA1 area (pilo-TC60 (60 mg/kg), n = 11): 31.9 ± 4.4**°°
number of neuronal cell bodies, Hippocampus, CA3 area (pilo-TC60 (60 mg/kg), n = 11): 31.6 ± 1.4
number of neuronal cell bodies, Hippocampus, Hilus (pilo-TC60 (60 mg/kg), n = 11): 32.8 ± 3.3
number of neuronal cell bodies, Thalamus, Central medial (pilo-TC60 (60 mg/kg), n = 11): 83.7 ± 9.6
number of neuronal cell bodies, Thalamus, Dorsolateral, medial, dorsal (pilo-TC60 (60 mg/kg), n = 11): 77.5 ± 3.9**°°
